{"source": "paper PMC12171682", "about": "“Saarvienin A—A Novel Glycopeptide with Potent Activity against Drug‐Resistant Bacteria” (Angewandte Chemie (International Ed. in English), 2025)", "key": {"[1]": {"system": "E. faecalis ATCC 29212", "assay": "microbe, parasite or virus in culture", "conditions": "Enterococcus faecalis, ATCC29212, 24 h, read-out: MIC, E. faecalis ATCC29212"}, "[2]": {"system": "vancomycin‐resistant E. faecium clinical isolates with reduced susceptibility to daptomycin (n = 26)", "assay": "microbe, parasite or virus in culture", "conditions": "Enterococcus faecium; for MIC: 24 h; for MIC50 / MIC90: VRE"}, "[3]": {"system": "vancomycin‐resistant E. faecium clinical isolates with reduced susceptibility to daptomycin (n = 26)", "conditions": "26 VRE E. faecium clinical isolates; broth microdilution, MHB II; daptomycin with 50 µg/mL Ca2+; mean of two independent experiments"}, "[4]": {"conditions": "read-out: MIC, Enterococcus faecium isolate 1"}, "[5]": {"conditions": "read-out: MIC, Enterococcus faecium isolate 2"}, "[6]": {"conditions": "read-out: MIC, Enterococcus faecium isolate 3"}, "[7]": {"conditions": "read-out: MIC, Enterococcus faecium isolate 4"}, "[8]": {"conditions": "read-out: MIC, Enterococcus faecium isolate 5"}, "[9]": {"conditions": "read-out: MIC, Enterococcus faecium isolate 6"}, "[10]": {"conditions": "read-out: MIC, Enterococcus faecium isolate 7"}, "[11]": {"conditions": "read-out: MIC, Enterococcus faecium isolate 8"}, "[12]": {"conditions": "read-out: MIC, Enterococcus faecium isolate 9"}, "[13]": {"conditions": "read-out: MIC, Enterococcus faecium isolate 10"}, "[14]": {"conditions": "read-out: MIC, Enterococcus faecium isolate 11"}, "[15]": {"conditions": "read-out: MIC, Enterococcus faecium isolate 12"}, "[16]": {"conditions": "read-out: MIC, Enterococcus faecium isolate 13"}, "[17]": {"conditions": "read-out: MIC, Enterococcus faecium isolate 14"}, "[18]": {"conditions": "read-out: MIC, Enterococcus faecium isolate 15"}, "[19]": {"conditions": "read-out: MIC, Enterococcus faecium isolate 16"}, "[20]": {"conditions": "read-out: MIC, Enterococcus faecium isolate 17"}, "[21]": {"conditions": "read-out: MIC, Enterococcus faecium isolate 18"}, "[22]": {"conditions": "read-out: MIC, Enterococcus faecium isolate 19"}, "[23]": {"conditions": "read-out: MIC, Enterococcus faecium isolate 20"}, "[24]": {"conditions": "read-out: MIC, Enterococcus faecium isolate 21"}, "[25]": {"conditions": "read-out: MIC, Enterococcus faecium isolate 22"}, "[26]": {"conditions": "read-out: MIC, Enterococcus faecium isolate 23"}, "[27]": {"conditions": "read-out: MIC, Enterococcus faecium isolate 24"}, "[28]": {"conditions": "read-out: MIC, Enterococcus faecium isolate 25"}, "[29]": {"conditions": "read-out: MIC, Enterococcus faecium isolate 26"}}, "note": "Where two headings read alike, the source gives them in different places."}
{"smiles": "CNC(C)C1CCC(N)C(OC2C(N)CC(N)C(OC3OCC(C)(O)C(NC)C3O)C2O)O1", "note": "(centres unmarked) [Gentamicin]", "values": [{"measurement": "MIC", "setting": "[1]", "value": 8, "unit": "µg/mL"}, {"measurement": "MIC", "setting": "[2]; [4]", "value": "> 64", "unit": "µg/mL"}, {"measurement": "MIC", "setting": "[2]; [5]", "value": "> 64", "unit": "µg/mL"}, {"measurement": "MIC", "setting": "[2]; [6]", "value": 64, "unit": "µg/mL"}, {"measurement": "MIC", "setting": "[2]; [7]", "value": "> 64", "unit": "µg/mL"}, {"measurement": "MIC", "setting": "[2]; [8]", "value": "> 64", "unit": "µg/mL"}, {"measurement": "MIC", "setting": "[2]; [9]", "value": "> 64", "unit": "µg/mL"}, {"measurement": "MIC", "setting": "[2]; [10]", "value": "> 64", "unit": "µg/mL"}, {"measurement": "MIC", "setting": "[2]; [11]", "value": "> 64", "unit": "µg/mL"}, {"measurement": "MIC", "setting": "[2]; [12]", "value": "> 64", "unit": "µg/mL"}, {"measurement": "MIC", "setting": "[2]; [13]", "value": "> 64", "unit": "µg/mL"}, {"measurement": "MIC", "setting": "[2]; [14]", "value": "> 64", "unit": "µg/mL"}, {"measurement": "MIC", "setting": "[2]; [15]", "value": "> 64", "unit": "µg/mL"}, {"measurement": "MIC", "setting": "[2]; [16]", "value": "> 64", "unit": "µg/mL"}, {"measurement": "MIC", "setting": "[2]; [17]", "value": "> 64", "unit": "µg/mL"}, {"measurement": "MIC", "setting": "[2]; [18]", "value": "> 64", "unit": "µg/mL"}, {"measurement": "MIC", "setting": "[2]; [19]", "value": "> 64", "unit": "µg/mL"}, {"measurement": "MIC", "setting": "[2]; [20]", "value": "> 64", "unit": "µg/mL"}, {"measurement": "MIC", "setting": "[2]; [21]", "value": "> 64", "unit": "µg/mL"}, {"measurement": "MIC", "setting": "[2]; [22]", "value": "> 64", "unit": "µg/mL"}, {"measurement": "MIC", "setting": "[2]; [23]", "value": "> 64", "unit": "µg/mL"}, {"measurement": "MIC", "setting": "[2]; [24]", "value": "> 64", "unit": "µg/mL"}, {"measurement": "MIC", "setting": "[2]; [25]", "value": "> 64", "unit": "µg/mL"}, {"measurement": "MIC", "setting": "[2]; [26]", "value": "> 64", "unit": "µg/mL"}, {"measurement": "MIC", "setting": "[2]; [27]", "value": "> 64", "unit": "µg/mL"}, {"measurement": "MIC", "setting": "[2]; [28]", "value": "> 64", "unit": "µg/mL"}, {"measurement": "MIC", "setting": "[2]; [29]", "value": "> 64", "unit": "µg/mL"}, {"measurement": "MIC50", "setting": "[2]", "value": "> 64", "unit": "µg/mL"}, {"measurement": "MIC90", "setting": "[2]", "value": "> 64", "unit": "µg/mL"}]}
{"smiles": "CC(=O)NC[C@H]1CN(c2ccc(N3CCOCC3)c(F)c2)C(=O)O1", "note": "[Linezolid]", "values": [{"measurement": "MIC Range", "setting": "[3]", "value": "2 to 4", "unit": "µg/mL"}, {"measurement": "MIC", "setting": "[1]", "value": 2, "unit": "µg/mL"}, {"measurement": "MIC", "setting": "[2]; [4]", "value": 2, "unit": "µg/mL"}, {"measurement": "MIC", "setting": "[2]; [5]", "value": 2, "unit": "µg/mL"}, {"measurement": "MIC", "setting": "[2]; [6]", "value": 4, "unit": "µg/mL"}, {"measurement": "MIC", "setting": "[2]; [7]", "value": 2, "unit": "µg/mL"}, {"measurement": "MIC", "setting": "[2]; [8]", "value": 4, "unit": "µg/mL"}, {"measurement": "MIC", "setting": "[2]; [9]", "value": 4, "unit": "µg/mL"}, {"measurement": "MIC", "setting": "[2]; [10]", "value": 2, "unit": "µg/mL"}, {"measurement": "MIC", "setting": "[2]; [11]", "value": 2, "unit": "µg/mL"}, {"measurement": "MIC", "setting": "[2]; [12]", "value": 2, "unit": "µg/mL"}, {"measurement": "MIC", "setting": "[2]; [13]", "value": 2, "unit": "µg/mL"}, {"measurement": "MIC", "setting": "[2]; [14]", "value": 2, "unit": "µg/mL"}, {"measurement": "MIC", "setting": "[2]; [15]", "value": 4, "unit": "µg/mL"}, {"measurement": "MIC", "setting": "[2]; [16]", "value": 4, "unit": "µg/mL"}, {"measurement": "MIC", "setting": "[2]; [17]", "value": 4, "unit": "µg/mL"}, {"measurement": "MIC", "setting": "[2]; [18]", "value": 4, "unit": "µg/mL"}, {"measurement": "MIC", "setting": "[2]; [19]", "value": 4, "unit": "µg/mL"}, {"measurement": "MIC", "setting": "[2]; [20]", "value": 2, "unit": "µg/mL"}, {"measurement": "MIC", "setting": "[2]; [21]", "value": 4, "unit": "µg/mL"}, {"measurement": "MIC", "setting": "[2]; [22]", "value": 4, "unit": "µg/mL"}, {"measurement": "MIC", "setting": "[2]; [23]", "value": 2, "unit": "µg/mL"}, {"measurement": "MIC", "setting": "[2]; [24]", "value": 2, "unit": "µg/mL"}, {"measurement": "MIC", "setting": "[2]; [25]", "value": 4, "unit": "µg/mL"}, {"measurement": "MIC", "setting": "[2]; [26]", "value": 4, "unit": "µg/mL"}, {"measurement": "MIC", "setting": "[2]; [27]", "value": 4, "unit": "µg/mL"}, {"measurement": "MIC", "setting": "[2]; [28]", "value": 4, "unit": "µg/mL"}, {"measurement": "MIC", "setting": "[2]; [29]", "value": 2, "unit": "µg/mL"}, {"measurement": "MIC50", "setting": "[2]", "value": 4, "unit": "µg/mL"}, {"measurement": "MIC90", "setting": "[2]", "value": 4, "unit": "µg/mL"}]}
